Laboratory results published in patent US20160166627A1, “JOINT HEALTH COMPOSITIONS” (NESTEC S.A., priority 2013, published 2016).
Structures can show the parent of a compound that is named as a salt.

Tested on: tumor necrosis factor α (TNF-α)
Assay: Serum TNF-α (inflammation marker) in ovariectomized rats, Rat TNF-α Platinum ELISA
Format: in vivo, Sprague-Dawley rats
Conditions: week 12 (end of study), vs OVX group, P<0.05
Experimental: Ovariectomized (OVX) rats were used as a model to mimic osteoarthritis in healthy postmenopausal women. The effect of fructus corni on suppressing markers of cartilage degeneration, cross linked C-telopeptide of type 2 collagen (CTX-II) and inflammation, tumor necrosis factor α (TNF-α), was examined. Seven month-old female Sprague-Dawley rats were purchased from Beijing Weitong Lihua Laboratory Animal Centre. Surgery was performed by the research team in Shenyang Medical College. The rats were anaesthetized with Hypnorm™/Dormicum™ (1 part Hypnorm™+1 part Dormicum™+2 parts sterile water) given by injection at 0.2 ml/100 g body weight. After anaesthesia the animal was shaved on the back and the skin disinfected. A single incision in the skin was made above the spine, providing access to both ovaries. The muscles were cut to provide access and the ovaries were located and removed by cutting. The muscle on each side was closed with 1-2 stitches, and the skin was closed with 3-4 stitches. […] Rats in group F had free access to distilled water containing 0.5% glucosamine and the amount of water consumed was recorded for each rat. […] CTX-II was measured using the Serum Preclinical Cartilaps ELISA (Nordic Bioscience, Herlev, Denmark). […] Serum TNFα was measured using Rat TNF-α Platinum ELISA (eBioscience, USA) for the serum collected at the end of the study only. […] Data were expressed as means±SD. […]

N[C@H]1C(O)O[C@H](CO)[C@@H](O)[C@@H]1O (stereo partly shown) [glucosamine, Glucosamine (GS) hydrochloride]
serum TNF-α concentration, increase induced by OVX: not observed
